Tests used:
BTK recombinant protein = BTK recombinant protein (Homo sapiens (Human), UniProt Q06187); assay: Determination of biochemical BTK (Z'-LYTE kinase assay)
Source text: Example 2 Determination of Biochemical BTK
(§1) 1. Reagents and Materials
BTK recombinant protein: Invitrogen, Cat #PV3363;
Z′-LYTE® kinase test kit-tyrosine 1 peptide: Invitrogen, Cat #PV3190;
Z′-LYTE® biochemical assay employs a fluorescence resonance energy transfer (FRET)—based, coupled-enzyme format and is based on the differential sensitivity of phosphorylated and non-phosphorylated peptides to proteolytic cleavage. Both ends of the short peptide substrate are labeled with two fluorescent groups to form a FRET paired combination. In the primary reaction (the Kinase Reaction), the kinase transfers the γ-phosphate of ATP to a single […] residue on the short peptide substrate. In the secondary reaction (the development reaction), the non-phosphorylated short peptides were recognized and cleaved by a site-specific protease (the development reagent). Phosphorylated short peptides can resist such cleavage. Cleavage of short peptides can disrupt the donor (such as coumarin) and receptor fluorophores (fluorescein) on the short peptides, while the phosphorylated short peptides can maintain FRET. The calculation method of the ratio is as follows, and the ratio of the respective emission signals generated by the donor fluorophores emitted (after excitation at 400 nm) to the receptors is calculated. Emission signal ratio=emitted light by coumarin (445 nm)/emitted light by fluorescein (520 nm). If the FRET short peptide is phosphorylated (such as no kinase inhibitor), the emitted light ratio will remain in a lower level. If the FRET short peptide is non-phosphorylated (such as kinase inhibitor), the emitted light ratio will be in a higher level. In this way, the inhibitory effects of different compound inhibitors on BTK kinase activity would be distinguished.
The experiment were carried out according to the instructions of the Z′-LYTE® kinase test kit-tyrosine 1 peptide. Reagent preparation: 1.33× kinase buffer: 5× kinase buffer was diluted with water to 1.33× kinase buffer; an enzyme solution: the kinase was dissolved in 1.33× kinase buffer with the final working concentration being 3.32 nM; a short peptide solution: a short peptide stock solution (1 mM dissolved in DMSO) was dissolved in 1.33× kinase buffer with the final working concentration being 2 μM; Z′-LYTE Tyr01 phosphorylated short peptide solution, 0.6 μl of stock solution (1 mM dissolved in DMSO) was dissolved in 149.4 μl of 1.33× kinase buffer; an ATP solution: an ATP stock solution (10 mM aqueous solution) was dissolved in 1.33× kinase buffer with the final working concentration being 32 μM; a color-developing solution: color-developing solution B was dissolved in color-developing buffer with the final working concentration being 1× color-developing solution; 4× compound preparation: the compound was diluted in 3-fold gradient concentration to finally obtain 4% DMSO aqueous solution containing different concentrations of the compound, with the final working concentration being 3000, 1000, 333.33, 111.11, 37.04, 12.35, 4.12, 1.37 nM, 8 concentration points in total.
Specific steps of the experiment: In the experiment, there were three control groups, each with 8 replicate wells, which were C1 100% inhibition group (no ATP), C2 0% inhibition group (with ATP), and C3 100% phosphorylation group, respectively. 2.5 μl of serially diluted compound was added to each well of a 384-well plate, with double replicate wells, and 4% DMSO solution was added to wells C1, C2, and C3. After that, except for wells C3, 2.5 μl of BTK enzyme solution was added to each remaining well, which was left to stand at 4° C. for 30 minutes. After that, except for wells C3, 2.5 μl of short peptide solution was added to each well, and 5 μl of phosphorylated short peptide solution was added to each of wells C3. 2.5 μl of 1.33× kinase buffer was added to each of wells C1 and C3, and 2.5 μl of ATP solution was added to each of the remaining wells. […]

[1] = biological target: phosphorylated BTK in Ramos cells (Homo sapiens (Human), UniProt Q06187); assay: Determination of phosphorylated BTK in Ramos cells (BTK phospho-Y223 HTRF); assay type: cell-based; details: anti-human IgM + hydrogen peroxide stimulation
Chain of phosphorylated BTK in Ramos cells (Q06187 whole entry): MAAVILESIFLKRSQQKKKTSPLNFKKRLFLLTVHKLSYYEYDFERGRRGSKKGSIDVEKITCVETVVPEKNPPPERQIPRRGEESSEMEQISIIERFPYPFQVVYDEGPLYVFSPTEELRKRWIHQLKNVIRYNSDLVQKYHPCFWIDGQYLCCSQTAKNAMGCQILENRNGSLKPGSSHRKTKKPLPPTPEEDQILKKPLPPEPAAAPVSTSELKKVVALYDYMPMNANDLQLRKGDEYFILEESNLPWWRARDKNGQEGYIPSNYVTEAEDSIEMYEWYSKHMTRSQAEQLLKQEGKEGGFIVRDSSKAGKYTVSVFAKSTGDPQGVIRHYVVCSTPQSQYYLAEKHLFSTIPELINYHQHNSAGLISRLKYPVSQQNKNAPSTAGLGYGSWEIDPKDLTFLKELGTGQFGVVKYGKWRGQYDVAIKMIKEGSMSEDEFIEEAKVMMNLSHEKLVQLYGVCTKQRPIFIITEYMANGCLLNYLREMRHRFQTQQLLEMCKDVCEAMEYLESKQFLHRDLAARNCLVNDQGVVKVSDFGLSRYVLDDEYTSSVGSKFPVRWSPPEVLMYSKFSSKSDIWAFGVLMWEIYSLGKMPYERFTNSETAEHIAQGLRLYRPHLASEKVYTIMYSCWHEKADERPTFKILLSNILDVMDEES
Method: Determination of Phosphorylated BTK in Ramos Cells
as §1
Ramos cells: Ramos cells were purchased from American Standard Biological Collection Center ATCC Cell Bank, PRMI 1640 medium containing L-glutamine, 1.5 g/L of sodium bicarbonate, 2.383 g/L of HEPES solution, 0.11 g/L of sodium pyruvate and 4.5 g/L of glucose was used, added 10% fetal bovine serum FBS, and placed in a 5% CO2, 37° C. cell incubator for normal culture;
Phosphorylated BTK HTRF detection kit (BTK phospho-Y223 HTRF kit): Cisbio, Cat #63ADK017PEH;
Ramos cells were starved in PRMI 1640 medium with 1% FBS for 2 hours. The starved Ramos cells were diluted with Hank's balanced salt solution to 5.0×10^6 cells/ml, seeded in a 96-well plate with 20 μL/well (1.0×10^5 cells/well), and cultured in a 5% CO2, 37° C. cell incubator. After culturing for 1 hour, the test compound was diluted with Hank's balanced salt solution in 4-fold gradient to the corresponding concentrations, and then 5 μL/well of the diluted test compound with different concentrations (the final concentrations of the test compound were 3.0, 0.75, 0.188, 0.047, 0.012, 0.0029, 0.0007 and 0.00018 μM, and the final concentration of DMSO was 0.3%, double replicate wells) or 5 μL/well of control solution (1.5% DMSO, 8 replicate wells) were added to 20 μL/well of cell culture system, which incubated together for another hour, then 5 μL/well of a mixed solution of human immunoglobulin M (final concentration was 10 μg/mL) and hydrogen peroxide (final concentration was 3.3 mM) diluted with Hank's balanced salt solution was added to the treating wells for the test compound and the control treating wells for anti-human immunoglobulin M, and 5 μL/well of Hank's balanced salt solution was added to negative control treating wells. The plate was incubated in a 5% CO2, 37° C. cell incubator for 10 minutes.
10 μL/well of cell lysis buffer was added to each well of a 96-well plate, which was mixed well and lysed at room temperature for 30 minutes. 16 μL/well of lysis buffer was pipetted to a new 384 well plate, and then added 4 μL/well of phosphorylated BTK antibody, centrifuged (1000 rpm) for 1 minute, then shaken for 1 minute, further centrifuged (1000 rpm) for 1 minute, and finally placed in a constant temperature incubator overnight. Detection was performed on the next day.
The 384 well plate incubated overnight in the constant temperature incubator was taken out to detect the luminescence signal using the Envision microwell plate reader at the […]. The reading value at 665 nm/615 nm of each well multiplied by 104 was used as the signal value of each well.
The average signal value of the wells supplemented with the mixed solution of human immunoglobulin M (final concentration was 10 μg/mL) and hydrogen peroxide (final concentration was 3.3 mM) without the test compound was regarded as the high value, and the average signal value of the wells without immunoglobulin M stimulation and without the test compound was regarded as the low value. According to the signal value in each well, the inhibition ratio (%) of each concentration of compounds was calculated, and the 205 model in XL-Fit 5.3 software (ID Business Solutions Limited) was used to obtain an IC50 value.
The inhibition ratio is calculated as follows: inhibition ratio (%)=100%−{(treating well for the test compound−negative control treating well)/(control treating well for anti-human immunoglobulin M−negative control treating well)}×100%, wherein,
Treating well for the test compound: represents the signal value of Ramos cells treated with anti-human immunoglobulin M, hydrogen peroxide and the test compound.
Control treating well for anti-human immunoglobulin M: represents the signal value of Ramos cells treated with anti-human immunoglobulin M, hydrogen peroxide but without the test compound. […]

Chain of BTK recombinant protein (Q06187 whole entry): as above

Row | Structure (SMILES) | IC50 (BTK recombinant protein) [nM] | IC50 [1] [nM]
1 | C[C@H]1CN(C2COC2)CCN1c1ccc(Nc2cc(-c3ccnc(-n4ccn5c6c(cc5c4=O)CC(C)(C)C6O)c3CO)cn(C)c2=O)nc1 (mixture of isomers) [Compound 182] | 8 | 34
2 | [2H]C(O)c1c(-c2cc(Nc3ccc(N4CCN(C5([2H])COC5)C[C@@H]4C)cn3)c(=O)n(C)c2)ccnc1-n1ccn2c3c(cc2c1=O)CC(C)(C)C3 (mixture of isomers) [Compound 101] | 6 | 2
3 | COCCN1CCn2nc(Nc3cc(-c4ccnc(-n5ncn6c7c(cc6c5=O)CC(C)(C)C7)c4CO)cn(C)c3=O)cc2C1C (racemic) [Compound 110, (RS)-2-(3′-(hydroxymethyl)-5-((5-(2-methoxyethyl)-4-methyl-4,5,6,7-tetrahydropyrazolo[1,5-a]pyrazin-2-yl)amido)-1-methyl-6-oxo-1,6-dihydro-[3,4′-bispyridin]-2′-yl)-7,7-dimethyl-7,8-dihydro-2H-cyclopenta[4,5]pyrrolo[1,2-d][1,2,4]triazin-1(6H)-one] | 2 | 2
4 | CC(O)CN(CCNc1ccc(Nc2cc(-c3ccnc(-n4ccn5c6c(cc5c4=O)CC(C)(C)C6)c3CO)cn(C)c2=O)nc1)C1COC1 (racemic) [Compound 179] | 19 | 70
5 | COCC(C)N1CCN(c2ccc(Nc3cc(-c4ccnc(-n5ncn6c7c(cc6c5=O)CC(C)(C)C7)c4CO)cn(C)c3=O)nc2)[C@@H](C)C1 (mixture of isomers) [Compound 219] | 4 | 11
6 | C[C@H]1CN2CCOCC2CN1c1ccc(Nc2cc(-c3ccnc(-n4ccn5c6c(cc5c4=O)CC(C)(C)C6)c3CO)cn(C)c2=O)nc1 (mixture of isomers) [Compound 236] | 24 | 4
7 | CCn1cc(Nc2nc(-c3ccnc(-n4ccn5c6c(cc5c4=O)CC(C)(C)C6)c3CO)cn(C)c2=O)nn1 [Compound 3] | 224 | 339
8 | CC(C)n1cc(Nc2nc(-c3ccnc(-n4ccn5c6c(cc5c4=O)CC(C)(C)C6)c3CO)cn(C)c2=O)nn1 [Compound 4] | 756 | 480
9 | C[C@H]1COCCN1c1ccc(Nc2cc(-c3ccnc(-n4ccn5c6c(cc5c4=O)CC(C)(C)C6)c3CO)cn(C)c2=O)nc1 [Compound 10] | 18 | 10
10 | Cc1c(-c2cc(Nc3ccc(N4CCN(C5COC5)C[C@@H]4C)cn3)c(=O)n(C)c2)ccnc1-n1ccn2c3c(cc2c1=O)CC(C)(C)C3 [Compound 12] | 230 | 13
11 | CCn1nc(-c2ccnc(-n3ccn4c5c(cc4c3=O)CC(C)(C)C5)c2CO)cc(Nc2ccc(N3CCN(C4COC4)C[C@@H]3C)cn2)c1=O [Compound 14] | 51 | 14
12 | CN1CCn2nc(Nc3cc(-c4ccnc(-n5ccn6c7c(cc6c5=O)CC(C)(C)C7)c4CO)cn(C)c3=O)cc2C1=O [Compound 15] | 17 | 12
13 | Cn1nc(-c2ccnc(-n3ccn4c5c(cc4c3=O)CC(C)(C)C5)c2CO)cc(Nc2cn(CCF)nn2)c1=O [Compound 32] | 17 | 30

Next, values leading:

Row | IC50 (BTK recombinant protein) [nM] | IC50 [1] [nM] | Structure (SMILES)
14 | 14 | 28 | CC1CCc2c(cc3c(=O)n(-c4nccc(-c5cc(Nc6ccc(N7CCN(C8COC8)C[C@@H]7C)cn6)c(=O)n(C)c5)c4CO)ccn23)C1 (mixture of isomers) [Compound 187]
15 | 23 | 21 | COCCN1CCn2nc(Nc3cc(-c4ccnc(-n5nc(C)n6c7c(cc6c5=O)CC(C)(C)C7)c4CO)cn(C)c3=O)cc2C1C (racemic) [Compound 121]
16 | 35 | 5 | CCN(CCOC)c1ccc(Nc2cc(-c3ccnc(-n4ccn5c6c(cc5c4=O)CC(C)(C)C6)c3CO)cn(C)c2=O)nc1 [Compound 1, 2-(5-((5-(ethyl (2-methoxyethyl)amino)pyridin-2-yl)amino)-3′-(hydroxymethyl)-1-methyl-6-oxo-1,6-dihydro-[3,4′-bispyridin]-2′-yl)-7,7-dimethyl-7,8-dihydro-2H-cyclopenta[4,5]pyrrolo[1,2-a]pyrazin-1(6H)-one]
17 | 2 | 2 | CC(C)n1cc(Nc2cc(-c3ccnc(-n4ccn5c6c(cc5c4=O)CC(C)(C)C6)c3CO)cn(C)c2=O)nn1 [Compound 6]
18 | < 1 | 3 | CC(C)n1cc(Nc2cc(-c3ccnc(-n4ccn5c6c(cc5c4=O)CC(C)(C)C6)c3CO)nn(C)c2=O)nn1 [Compound 7]
19 | 106 | 155 | Cc1c(-c2ccnc(-n3ccn4c5c(cc4c3=O)CC(C)(C)C5)c2CO)cc(Nc2ccc(N3CCN(C4COC4)C[C@@H]3C)cn2)c(=O)n1C [Compound 11]
20 | 4 | 4 | CC(C)n1cc(Nc2cc(-c3ccnc(-n4ccn5c6c(cc5c4=O)CC(C)(C)C6)c3CO)cn3ncnc23)nn1 [Compound 18]
21 | 8 | 30 | Cn1cc(Nc2cc(-c3ccnc(-n4ccn5c6c(cc5c4=O)CC(C)(C)C6)c3CO)nn(C)c2=O)nn1 [Compound 29]
22 | 9 | 8 | Cn1cc(-c2ccnc(-n3ccn4c5c(cc4c3=O)CC(C)(C)C5)c2CO)cc(Nc2cn(CC(F)(F)F)nn2)c1=O [Compound 30]
23 | 25 | 26 | Cn1nc(-c2ccnc(-n3ccn4c5c(cc4c3=O)CC(C)(C)C5)c2CO)cc(Nc2cn(CC(F)(F)F)nn2)c1=O [Compound 33]

Source: patent US11478474B2, “2-(3′-(hydroxymethyl)-1-methyl-5-((5-(2-methyl-4-(oxetan-3-yl)piperazin-1-yl)pyridin-2-yl)amino)-6-oxo-1,6-dihydro-[3,4′-bipyridin]-2′-yl)-7,7-dimethyl-7,8-dihydro-2H-cyclopenta[4,5]pyrrolo[1,2-a]pyrazin-1(6H)-one as a BTK inhibitor” (HUTCHISON MEDIPHARMA LIMITED, priority 2020, dated 2022)
